Experimental findings from ChEMBL document CHEMBL3785085, “Pharmacokinetics of single and multiple doses of phenytoin in man” (Eur J Clin Pharmacol, 1974) are described below.

In general, half-life refers to the time in which the quantity being followed falls by half. One may read the Cmax as the highest concentration seen after dosing. By clearance is commonly meant the volume of plasma or blood freed of the substance per unit of time. The low end stands for inefficient removal, the high end for efficient removal.

A short description of series [1]: Half life in healthy human volunteer (5 volunteers) at 5 mg/kg, po administered as single dose by gas chromatographic method. The series is classed as ADME, organism-based. The settings on record: in vivo.
Series [2] is described as follows: Half life at post steady state in healthy human volunteer (5 volunteers) at 2 mg/kg, po bid administered for 12 days by gas chromatographic method. Type of series: ADME, organism-based. The following applies: in vivo.
A short description of series [3]: Cmax in healthy human volunteer (5 volunteers) at 5 mg/kg, po administered as single dose by gas chromatographic method. Type of series: ADME, organism-based. Details: dose 5 mg/kg, route oral. The settings on record: in vivo.
A short description of series [4]: Half life in healthy human volunteer (5 volunteers) at 5 mg/kg, iv administered as single dose through infusion by gas chromatographic method. Type of series: ADME, organism-based. The settings on record: in vivo.
The nature of series [5]: Total plasma clearance in healthy human volunteer (5 volunteers) at 5 mg/kg, iv administered as single dose by gas chromatographic method. The series is classed as ADME, organism-based.
Series [6] can be described thus: Apparent volume of distribution (area) in healthy human volunteer (5 volunteers) at 5 mg/kg, iv administered as single dose through infusion by gas chromatographic method. The series is classed as ADME, organism-based. The settings on record: in vivo, read-out: Vd(app).
For series [7], the system named is Homo sapiens. The experiment in a line: Anticonvulsant activity in po dose patient assessed as compound level in plasma required to decrease epileptic seizure. The series is classed as functional.
Series [8] in a line: Half life during steady state in healthy human volunteer (5 volunteers) at 2 mg/kg, po bid administered for 12 days by gas chromatographic method. Type of series: ADME, organism-based. The settings on record: in vivo.
The test system of series [9] is Plasma. The experiment in a line: Plasma concentration at steady state in healthy human volunteer (5 volunteers) at 2 mg/kg, po bid administered for 12 days by gas chromatographic method. Type of series: ADME, organism-based. The following applies: in vivo, 288 h.
Series [10] can be described thus: Drug uptake in healthy human volunteer (5 volunteers) at 5 mg/kg, iv administered as single dose through infusion after 0.5 hrs by gas chromatographic method. The series is classed as ADME, organism-based. The following applies: in vivo, read-out: Drug uptake.

Take `O=C1N=C([O-])NC1(c1ccccc1)c1ccccc1.[Na+]` [PHENYTOIN SODIUM]: the half-life in series [1] was 16.6 h; in series [2], 15.9 h; in series [4], 14.5 h; in [8], 21.3 h. Moreover, in series [3], the peak level (Cmax) was 2600 ng/mL. In series [5], this compound had a clearance of 0.367 mL/min/kg. The Vd in series [6] was 0.52 L/kg. In addition, in series [7], the MEC stood at 10 µg/mL. In [9], this compound showed a Cpss of 5.3 µg/mL. Besides, in series [10], the concentration at 0.5 h is 8400 ng/mL.
